Data from patent US20240246992A1, “MACROCYCLIC LRRK2 KINASE INHIBITORS” (LES LABORATOIRES SERVIER, priority 2021, published 2024).

The compounds below were run against human recombinant LRRK2 protein (Homo sapiens, UniProt Q5S007) (assay: LRRK2 kinase activity assay (ADP-Glo, LRRKtide peptide)). Details: human recombinant LRRK2 wt, LRRKtide peptide and ATP, 1 h at 37° C.
Chain of human recombinant LRRK2 protein (Q5S007 whole entry): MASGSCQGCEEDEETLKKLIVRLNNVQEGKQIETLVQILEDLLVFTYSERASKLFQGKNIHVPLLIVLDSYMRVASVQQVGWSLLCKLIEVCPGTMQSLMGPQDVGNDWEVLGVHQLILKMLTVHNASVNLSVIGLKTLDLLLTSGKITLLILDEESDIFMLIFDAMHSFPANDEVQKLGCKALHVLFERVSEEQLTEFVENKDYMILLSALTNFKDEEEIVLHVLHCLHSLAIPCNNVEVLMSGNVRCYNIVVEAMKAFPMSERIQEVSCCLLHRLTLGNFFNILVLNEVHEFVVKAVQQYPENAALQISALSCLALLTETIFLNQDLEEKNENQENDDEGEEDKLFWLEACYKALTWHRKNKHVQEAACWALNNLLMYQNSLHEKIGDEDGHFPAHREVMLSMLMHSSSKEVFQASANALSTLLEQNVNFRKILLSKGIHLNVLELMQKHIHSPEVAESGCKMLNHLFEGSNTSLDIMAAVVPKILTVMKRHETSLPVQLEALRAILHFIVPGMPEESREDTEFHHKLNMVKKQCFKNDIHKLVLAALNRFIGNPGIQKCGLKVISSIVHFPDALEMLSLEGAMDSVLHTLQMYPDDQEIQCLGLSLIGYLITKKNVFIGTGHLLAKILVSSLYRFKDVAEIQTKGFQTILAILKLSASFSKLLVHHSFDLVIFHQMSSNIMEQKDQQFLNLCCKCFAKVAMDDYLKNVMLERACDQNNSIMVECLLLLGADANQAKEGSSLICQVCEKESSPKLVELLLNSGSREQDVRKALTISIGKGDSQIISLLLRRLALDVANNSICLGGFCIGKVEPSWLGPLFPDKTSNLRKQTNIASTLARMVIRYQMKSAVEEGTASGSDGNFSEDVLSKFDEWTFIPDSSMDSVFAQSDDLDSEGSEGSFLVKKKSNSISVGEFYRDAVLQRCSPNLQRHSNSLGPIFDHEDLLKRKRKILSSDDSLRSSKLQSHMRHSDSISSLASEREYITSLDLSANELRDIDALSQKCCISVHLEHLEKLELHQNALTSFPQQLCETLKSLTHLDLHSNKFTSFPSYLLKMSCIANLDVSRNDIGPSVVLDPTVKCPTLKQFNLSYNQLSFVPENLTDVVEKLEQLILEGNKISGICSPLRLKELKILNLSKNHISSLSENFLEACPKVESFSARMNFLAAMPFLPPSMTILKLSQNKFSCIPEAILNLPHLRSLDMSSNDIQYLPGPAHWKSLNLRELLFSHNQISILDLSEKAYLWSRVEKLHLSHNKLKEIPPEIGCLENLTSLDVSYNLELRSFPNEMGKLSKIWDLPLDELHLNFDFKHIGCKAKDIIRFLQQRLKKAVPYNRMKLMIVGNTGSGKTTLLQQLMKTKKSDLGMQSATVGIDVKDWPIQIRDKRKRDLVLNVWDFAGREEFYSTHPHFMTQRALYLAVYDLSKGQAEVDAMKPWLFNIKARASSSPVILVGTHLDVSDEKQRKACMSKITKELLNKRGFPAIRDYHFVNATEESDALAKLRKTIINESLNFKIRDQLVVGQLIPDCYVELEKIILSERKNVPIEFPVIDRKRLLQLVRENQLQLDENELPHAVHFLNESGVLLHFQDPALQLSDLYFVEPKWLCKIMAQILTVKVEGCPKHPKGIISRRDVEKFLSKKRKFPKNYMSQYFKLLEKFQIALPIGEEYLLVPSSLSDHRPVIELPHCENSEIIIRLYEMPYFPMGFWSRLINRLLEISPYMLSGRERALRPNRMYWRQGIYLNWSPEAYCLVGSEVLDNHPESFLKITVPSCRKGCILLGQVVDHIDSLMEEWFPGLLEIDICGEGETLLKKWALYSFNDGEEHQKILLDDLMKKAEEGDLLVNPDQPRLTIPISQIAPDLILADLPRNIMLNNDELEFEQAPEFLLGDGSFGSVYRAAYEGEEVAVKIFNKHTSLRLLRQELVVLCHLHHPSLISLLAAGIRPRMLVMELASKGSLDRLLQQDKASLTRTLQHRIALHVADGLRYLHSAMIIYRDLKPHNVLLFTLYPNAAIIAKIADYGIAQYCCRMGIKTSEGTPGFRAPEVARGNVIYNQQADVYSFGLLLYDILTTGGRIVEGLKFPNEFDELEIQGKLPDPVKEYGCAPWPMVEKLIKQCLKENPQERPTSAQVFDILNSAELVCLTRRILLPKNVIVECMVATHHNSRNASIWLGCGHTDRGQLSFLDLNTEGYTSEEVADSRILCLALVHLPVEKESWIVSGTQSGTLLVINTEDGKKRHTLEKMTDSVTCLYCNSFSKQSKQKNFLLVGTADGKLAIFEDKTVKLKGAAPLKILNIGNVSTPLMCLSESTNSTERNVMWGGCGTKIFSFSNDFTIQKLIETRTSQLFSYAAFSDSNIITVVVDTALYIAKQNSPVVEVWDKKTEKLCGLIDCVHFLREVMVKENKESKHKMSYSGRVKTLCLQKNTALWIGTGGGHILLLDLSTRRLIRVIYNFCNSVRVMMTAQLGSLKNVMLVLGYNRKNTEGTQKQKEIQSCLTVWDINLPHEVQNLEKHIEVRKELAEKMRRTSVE
Format: biochemical
Method in brief: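 Human recombinant LRRK2 reacted with LRRKtide peptide and ATP for 1 h at 37 °C in the presence of compound. ADP formed measured by ADP-Glo luminescence; IC50 fitted from 10 concentrations run in duplicate.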
`O=C1COc2cc(cc(N3CCN(CC4CC4)CC3)c2)-c2n[nH]c3ccc(cc23)OCCCN1` [Example 209, 4-[4-(cyclopropylmethyl)piperazin-1-yl]-7,14-dioxa-10,19,20-triazatetracyclo[13.5.2.1^2,6.0^18,21]tricosa-1(20),2(23),3,5,15,17,21-heptaen-9-one] gave an IC50 of under 10 nM.
For `O=C1COc2cc(C3=CCCOC3)cc(c2)-c2n[nH]c3ccc(cc23)OCCCN1` [Example 210, 4-(5,6-dihydro-2H-pyran-3-yl)-7,14-dioxa-10,19,20-triazatetracyclo[13.5.2.1^2,6.0^18,21]tricosa-1(20),2(23),3,5,15,17,21-heptaen-9-one], the IC50 was under 10 nM.
For `O=C1COc2cc(C3=CCOC3)cc(c2)-c2n[nH]c3ccc(cc23)OCCCN1` [Example 211, 4-(2,5-dihydrofuran-3-yl)-7,14-dioxa-10,19,20-triazatetracyclo[13.5.2.1^2,6.0^18,21]tricosa-1(20),2(23),3,5,15,17,21-heptaen-9-one], the IC50 was under 10 nM.
In the case of `O=C1COc2cc(cc(N3CCNCC3)c2)-c2n[nH]c3ccc(cc23)OCCCN1` [Example 212, 4-(piperazin-1-yl)-7,14-dioxa-10,19,20-triazatetracyclo [13.5.2.1^2,6.0^18,21]tricosa-1(20),2(23),3,5,15,17,21-heptaen-9-one], the IC50 is reported as under 10 nM.
For `O=C1COc2cc(-c3ccoc3)cc(c2)-c2n[nH]c3ccc(cc23)OCCCN1` [Example 213, 4-(furan-3-yl)-7,14-dioxa-10,19,20-triazatetracyclo[13.5.2.1^2,6.0^18,21]tricosa-1(20),2(23),3,5,15,17,21-heptaen-9-one], the IC50 was under 10 nM.
`O=C1COc2cc(cc(C3CCOC3)c2)-c2n[nH]c3ccc(cc23)OCCCN1` (centres unmarked) [Example 214, 4-(oxolan-3-yl)-7,14-dioxa-10,19,20-triazatetracyclo[13.5.2.1^2,6.0^18,21]tricosa-1(20),2(23),3,5,15,17,21-heptaen-9-one] was tested, and the IC50 was under 10 nM.
Compound `C[C@H]1COc2ccc3[nH]nc(c3c2)-c2cccc(c2)OCC(=O)N[C@@H]1C` [Example 215, (11R,12R)-11,12-dimethyl-7,14-dioxa-10,19,20-triazatetracyclo[13.5.2.1^2,6.0^18,21]tricosa-1(20),2,4,6(23),15(22),16,18(21)-heptaen-9-one] has an IC50 of under 100 nM.
`O=C1COc2cc(cc(N3C[C@@H](F)[C@H](F)C3)c2)-c2n[nH]c3ccc(cc23)OCCCN1` [Example 216, 4-[(3R,4R)-3,4-difluoropyrrolidin-1-yl]-7,14-dioxa-10,19,20-triazatetracyclo[13.5.2.1^2,6.0^18,21]tricosa-1(20),2(23),3,5,15,17,21-heptaen-9-one] showed an IC50 of under 10 nM.
For `O=C1COc2cc(cc(N3CCN(C4CC4)CC3)c2)-c2n[nH]c3ccc(cc23)OCCCN1` [Example 217, 4-(4-cyclopropylpiperazin-1-yl)-7,14-dioxa-10,19,20-triazatetracyclo[13.5.2.1^2,6.0^18,21]tricosa-1(20),2(23),3,5,15,17,21-heptaen-9-one], the IC50 was under 10 nM.
With `O=C1COc2cc(cc(C3CCCCO3)c2)-c2n[nH]c3ccc(cc23)OCCCN1` (centres unmarked) [Example 218, 4-(oxan-2-yl)-7,14-dioxa-10,19,20-triazatetracyclo[13.5.2.1^2,6.0^18,21]tricosa-1(20),2(23),3,5,15,17,21-heptaen-9-one] the IC50 was under 10 nM.
`O=C1CCc2cc(F)cc(c2)-c2n[nH]c3ccc(cc23)OCCCN1` [Example 219, 4-fluoro-14-oxa-10,19,20-triazatetracyclo[13.5.2.1^2,6.0^18,21]tricosa-1(20),2(23),3,5,15(22),16,18(21)-heptaen-9-one] showed an IC50 of under 10 nM.
Work on `O=C1CCc2cncc(c2)-c2n[nH]c3ccc(cc23)OCCCN1` [Example 220, 14-oxa-4,10,19,20-tetraazatetracyclo[13.5.2.1^2,6.0^18,21]tricosa-1(20),2(23),3,5,15(22),16,18(21)-heptaen-9-one] yielded an IC50 of under 10 nM.
Work on `CN1CCOc2ccc3[nH]nc(c3c2)-c2cccc(c2)OCCC1=O` [Example 221, 11-methyl-7,14-dioxa-11,19,20-triazatetracyclo[13.5.2.1^2,6.0^18,21] tricosa-1(20),2(23),3,5,15,17,21-heptaen-10-one] yielded an IC50 of under 100 nM.
For `O=C1COCCn2ncc(n2)-c2n[nH]c3ccc(cc23)OCCN1` [Example 222, 8,14-dioxa-4,5,11,19,20,23-hexaazatetracyclo[13.5.2.1^2,5.0^18,21]tricosa-1(20),2(23),3,15(22),16,18(21)-hexaen-10-one], the IC50 was under 1000 nM.
Compound `C[C@@H]1CCNC(=O)CCn2ncc(n2)-c2n[nH]c3ccc(cc23)O1` [Example 223, (12R)-12-methyl-13-oxa-4,5,9,18,19,22-hexaazatetracyclo[12.5.2.1^2,5.0^17,20]docosa-1(19),2(22),3,14(21),15,17(20)-hexaen-8-one] has an IC50 of under 10 nM.
In the case of `O=C1CCn2ncc(n2)-c2n[nH]c3ccc(cc23)OC[C@@H](F)CN1` [Example 225, (11S)-11-fluoro-13-oxa-4,5,9,18,19,22-hexaazatetracyclo [12.5.2.1^2,5.0^17,20]docosa-1(19),2(22),3,14(21),15,17(20)-hexaen-8-one], the IC50 is reported as under 10 nM.
For `C[C@H]1CCNC(=O)CCn2ncc(n2)-c2n[nH]c3ccc(cc23)O1` [Example 226, (12S)-12-methyl-13-oxa-4,5,9,18,19,22-hexaazatetracyclo [12.5.2.1^2,5.0^17,20]docosa-1(19),2(22),3,14(21),15,17(20)-hexaen-8-one], the IC50 was under 10 nM.
With `O=C1CCn2ncc(n2)-c2n[nH]c3ccc(cc23)OC[C@H](F)CN1` [Example 227, (11R)-11-fluoro-13-oxa-4,5,9,18,19,22-hexaazatetracyclo [12.5.2.1^2,5.0^17,20]docosa-1(19),2(22),3,14(21),15,17(20)-hexaen-8-one] the IC50 was under 10 nM.
`C[C@@H]1COc2ccc3[nH]nc(c3c2)-c2cccc(c2)OCCN[C@@H]1C` [Example 228, (11R,12S)-11,12-dimethyl-7,14-dioxa-10,19,20-triazatetracyclo[13.5.2.1^2,6.0^18,21]tricosa-1(20),2,4,6(23),15(22),16,18(21)-heptaene] was tested, and the IC50 was under 10 nM.
`C[C@H]1NCCOc2cccc(c2)-c2n[nH]c3ccc(cc23)OC[C@@H]1F` [Example 231, (11R,12R)-12-fluoro-11-methyl-7,14-dioxa-10,19,20-triazatetracyclo[13.5.2.1^2,6.0^18,21]tricosa-1(20),2,4,6(23),15(22),16,18(21)-heptaene] showed an IC50 of under 100 nM.
In the case of `C[C@H]1CCNCCOc2cncc(c2)-c2n[nH]c3ccc(cc23)O1` [Example 232, (13S)-13-methyl-7,14-dioxa-4,10,19,20-tetraazatetracyclo[13.5.2.1^2,6.0^18,21]tricosa-1(20),2,4,6(23),15(22),16,18(21)-heptaene], the IC50 is reported as under 10 nM.
`C[C@H]1CCNCCCn2cc(cn2)-c2n[nH]c3ccc(cc23)O1` [Example 233, (12S)-12-methyl-13-oxa-4,5,9,18,19-pentaazatetracyclo [12.5.2.1^2,5.0^17,20] docosa-1(19),2(22),3,14(21),15,17(20)-hexaene] showed an IC50 of under 10 nM.
`c1cc2[nH]nc3c2cc1OCCNCCCOc1cc-3cc(N2CCOCC2)c1` [Example 236, 4-(morpholin-4-yl)-7,14-dioxa-11,19,20-triazatetracyclo [13.5.2.1^2,6.0^18,21]tricosa-1(20),2,4,6(23),15,17,21-heptaene] was tested, and the IC50 was under 10 nM.
